According to patent US20020086278A1, “CHROMOGENIC MEDIA CONTAINING BLOOD OR HEMIN” (priority 1999, published 2002):
Read-outs that look alike come from different tables or passages of the source.

Columns and labels:
[1] = tested on: Staphylococcus Coag Neg (step); test: Example 3: colony color on chromogenic TSA II with 5% sheep blood (chromogen in medium); type: cell-based; settings: for Colony Color on Various Chromogenic TSA II with 5% Sheep Blood: 18 h; for Colony Color: 21 h
[2] = tested on: Streptococcus agalactiae (stag); test: as above; type: cell-based
[3] = tested on: Staphylococcus aureus (stau); test: as above; type: cell-based
S. pneumoniae (stpn) = test: as above; type: cell-based; settings: for Colony Color on Various Chromogenic TSA II with 5% Sheep Blood: 18 h
Group B Strep. 12386 = test: Example 1: growth and colony color on plates surface-spread with chromogen; type: cell-based; settings: for Color: Group B Strep 12386
[4] = tested on: Branhamella catarrhalis 25238; test: as above; type: cell-based; settings: TSA Plain; B. catt 25258
milu 9341 = test: Example 3: colony color on chromogenic TSA II with 5% sheep blood (chromogen in medium); type: cell-based
[5] = tested on: Serratia marcescens (sema); test: as above; type: cell-based; settings: for Colony Color: sema 13880, CO2
[6] = tested on: Entercoccus faecalis (enfa); test: as above; type: cell-based; settings: for Colony Color: CO2
[7] = tested on: Aeromonas hydrophilia (aehy); test: as above; type: cell-based; settings: CO2
S. agalactiae 12386 = test: Example 2: effect of incubation conditions on colony color formation; type: cell-based, Streptococcus agalactiae; settings: 0.004 g/plate, 24 h, CO2
N. gonorrhoeae 35201 = test: Example 1: growth and colony color on plates surface-spread with chromogen; type: cell-based; settings: Substrate on Choclate II Agar; N. gono. 35201
E. faecium (enfu) = test: Example 3: colony color on chromogenic TSA II with 5% sheep blood (chromogen in medium); type: cell-based
[8] = tested on: Branhamella catarrhalis (brca); test: as above; type: cell-based; settings: for Colony Color: CO2
S pyogenes (stpy) = test: as above; type: cell-based; settings: for Colony Color on Various Chromogenic TSA II with 5% Sheep Blood: 18 h
[9] = tested on: Gardnerella vaginalis 14019; test: Example 1: growth and colony color on plates surface-spread with chromogen; type: cell-based; settings: Substrate on Choclate II Agar; G. vag. 14019
[10] = tested on: Streptococcus pneumoniae 6303; test: as above; type: cell-based; settings: TSA Plain; S. pneu: 6303
[11] = tested on: Klebsiella pneumoniae (klpn); test: Example 3: colony color on chromogenic TSA II with 5% sheep blood (chromogen in medium); type: cell-based; settings: for Colony Color: CO2
S. milleri (stmi) = test: as above; type: cell-based; settings: for Colony Color: stmi 6249, 21 h
[12] = tested on: Citrobacter freundii (cifr); test: as above; type: cell-based; settings: for Colony Color: CO2
Salmonella spp. (sasp) = type: cell-based; settings: for Colony Color: CO2
[13] = tested on: Pseudomonas aeruginosa (psae); test: Example 3: colony color on chromogenic TSA II with 5% sheep blood (chromogen in medium); type: cell-based; settings: CO2
[14] = chromogenic TSA II with 5% Sheep Blood, 0.1 g/l, 5 strains tested
[15] = chromogenic TSA II with 5% Sheep Blood, 0.1 g/l, 3 strains tested
[16] = chromogenic TSA II with 5% Sheep Blood, 0.1 g/l, 1 strain tested
[17] = chromogenic TSA II with 5% Sheep Blood, 0.1 g/l, 2 strains tested

SMILES: OC[C@H]1O[C@@H](Oc2c[nH]c3ccc(Br)c(Cl)c23)[C@H](O)[C@@H](O)[C@@H]1O [X-Glucoside, 5-Br-4-Cl-3-indolyl-β-D-glucopyranoside]
- Colony Color (Summary) [1, 14]: 0
- Colony Color on Various Chromogenic TSA II with 5% Sheep Blood ([1]; step 12228, CO2): 0
- Colony Color ([1]; step 12228, CO2): 0
- Colony Color ([1]; step 12228, air): 0
- Colony Color on Various Chromogenic TSA II with 5% Sheep Blood ([1]; step cdc1, CO2): 0
- Colony Color ([1]; step cdc1, CO2): 0
- Colony Color ([1]; step cdc1, air): 0
- Colony Color ([1]; step cdc2, CO2): 0
- Colony Color ([1]; step cdc2, air): 0
- Colony Color ([1]; step cdc3, CO2): 0
- Colony Color ([1]; step cdc3, air): 0
- Colony Color on Various Chromogenic TSA II with 5% Sheep Blood ([1]; step cdc4, CO2): 0
- Colony Color ([1]; step cdc4, CO2): 0
- Colony Color ([1]; step cdc4, air): 0
- Colony Color on Various Chromogenic TSA II with 5% Sheep Blood ([1]; stha cdc2, CO2): 0
- Colony Color on Various Chromogenic TSA II with 5% Sheep Blood ([1]; stsa cdc3, CO2): 0
- Colony hemolytic activity ([2]; Group B Strep on X-glucoside TSA II): slightly reduced
- Colony Color ([2]; Group B Strep, 3 of 3 strains, X-glucoside TSA II): blue
- Colony Color (Summary) [2, 15]: +
- CAMP test ([2]; on X-glucoside TSA II): works well
- Colony Color ([2]; stag 4768, air, 21 h): lb
- Colony Color (Summary) [3, 14]: 0
- Colony Color ([3]; stau 1006, CO2, 21 h): 0
- Colony Color ([3]; stau 1007, CO2, 21 h): 0
- Colony Color ([3]; stau 1008, CO2, 21 h): 0
- Colony Color ([3]; stau 1009, CO2, 21 h): 0
- Colony Color ([3]; stau 25923, CO2, 18 h): 0
- Colony Color ([3]; stau 25923, CO2, 24 h): 0
- Colony Color ([3]; stau 25923, air, 24 h): 0
- Colony Color on Various Chromogenic TSA II with 5% Sheep Blood ([3]; stau t006, CO2, 18 h): 0
- Colony Color on Various Chromogenic TSA II with 5% Sheep Blood ([3]; stau t007, CO2, 18 h): 0
- Colony Color on Various Chromogenic TSA II with 5% Sheep Blood ([3]; stau t008, CO2, 18 h): 0
- Colony Color on Various Chromogenic TSA II with 5% Sheep Blood ([3]; stau t009, CO2, 18 h): 0
- Colony Color (S. pneumoniae (stpn); stpn 1259, CO2, 21 h): 0
- Colony Color (S. pneumoniae (stpn); stpn 1260, CO2, 21 h): 0
- Colony Color (S. pneumoniae (stpn); stpn 1628, CO2, 21 h): 0
- Colony Color (S. pneumoniae (stpn); stpn 6303, CO2, 24 h): 0
- Colony Color (S. pneumoniae (stpn); stpn 6303, air, 24 h): 0
- Colony Color (S. pneumoniae (stpn); stpn 6305, CO2, 24 h): 0
- Colony Color (S. pneumoniae (stpn); stpn 6305, air, 24 h): 0
- Colony Color on Various Chromogenic TSA II with 5% Sheep Blood (S. pneumoniae (stpn); stpn t259, CO2): 0
- Colony Color on Various Chromogenic TSA II with 5% Sheep Blood (S. pneumoniae (stpn); stpn t260, CO2): 0
- Colony Color on Various Chromogenic TSA II with 5% Sheep Blood (S. pneumoniae (stpn); stpn t331, CO2): 0
- Colony Color on Various Chromogenic TSA II with 5% Sheep Blood (S. pneumoniae (stpn); stpn t628, CO2): bg
- Color (Group B Strep. 12386; Choc II): blue
- Substrates Producing Color (Group B Strep. 12386; Summary of Table I, Group B Strep. 12386): X-Glucoside, X-
- Color (Group B Strep. 12386; TSA II 5SB): blue
- Color (Group B Strep. 12386; TSA Plain): blue
- Growth [4]: <
- Colony Color (milu 9341; CO2, 18 h): ly
- Colony Color (milu 9341; CO2, 21 h): 0
- Colony Color (Summary) [5, 16]: +
- Colony Color ([5]; 18 h): bg
- Colony Color ([5]; 21 h): gb
- Colony Color (Summary) ([6]; chromogenic TSA II with 5% Sheep Blood, 0.1 g/l, 6 strains tested): +
- Colony Color ([6]; enfa 597, 18 h): db
- Colony Color ([6]; enfa 10741, 18 h): db
- Colony Color ([6]; enfa 10741, 21 h): db
- Colony Color ([6]; enfa 12953, 18 h): db
- Colony Color ([6]; enfa 12953, 21 h): db
- Colony Color ([6]; enfa 14506, 18 h): db
- Colony Color ([6]; enfa 14506, 21 h): db
- Colony Color ([6]; enfa 29212, 18 h): db
- Colony Color ([6]; enfa 29212, 21 h): db
- Colony Color ([7]; aehy 7965, 18 h): 0
- Colony Color ([7]; aehy 7965, 21 h): 0
- Colony Color ([7]; aehy 7966, 18 h): 0
- Colony Color ([7]; aehy 49847, 18 h): gb
- Colony Color ([7]; aehy 49847, 21 h): gb
- Colony Color (S. agalactiae 12386; Chocolate II Agar): blue (d)
- Colony Color (S. agalactiae 12386; TSA II 5% Sheep Blood): blue (d)
- Growth (N. gonorrhoeae 35201): <
- Colony Color (Summary) (E. faecium (enfu); [16]): +
- Colony Color (E. faecium (enfu); enfu 49032, CO2, 18 h): db
- Colony Color ([8]; brca 25238, 18 h): 0
- Colony Color ([8]; brca 25238, 21 h): 0
- Colony Color ([8]; brca 25240, 18 h): 0
- Colony Color ([8]; brca 25240, 21 h): 0
- Colony Color (Summary) [8, 17]: 0
- Colony Color (S pyogenes (stpy); 4 of 7 S. pyogenes, X-glucoside TSA II): light grey blue
- Colony Color (S pyogenes (stpy); stpy 1027, CO2, 21 h): 0
- Colony Color (S pyogenes (stpy); stpy 1028, CO2, 21 h): lgb
- Colony Color (S pyogenes (stpy); stpy 1029, CO2, 21 h): lgb
- Colony Color (S pyogenes (stpy); stpy 1030, CO2, 21 h): gb
- Colony Color (S pyogenes (stpy); stpy 19615, CO2, 21 h): gb
- Colony Color (S pyogenes (stpy); stpy 19615, air, 21 h): lgb
- Colony Color (S pyogenes (stpy); stpy 49117, CO2, 21 h): 0
- Colony Color (S pyogenes (stpy); stpy 49117, air, 21 h): 0
- Colony Color on Various Chromogenic TSA II with 5% Sheep Blood (S pyogenes (stpy); stpy 51339, CO2): 0
- Colony Color (S pyogenes (stpy); stpy 51339, CO2, 21 h): 0
- Colony Color (S pyogenes (stpy); stpy 51339, air, 21 h): lgb
- Colony Color on Various Chromogenic TSA II with 5% Sheep Blood (S pyogenes (stpy); stpy t027, CO2): 0
- Colony Color on Various Chromogenic TSA II with 5% Sheep Blood (S pyogenes (stpy); stpy t028, CO2): 0
- Colony Color on Various Chromogenic TSA II with 5% Sheep Blood (S pyogenes (stpy); stpy t029, CO2): 0
- Colony Color on Various Chromogenic TSA II with 5% Sheep Blood (S pyogenes (stpy); stpy t030, CO2): lgb
- Growth [9]: <
- Growth [10]: <
- Colony Color (Summary) [11, 15]: +
- Colony Color ([11]; klpn 13883, 21 h): gb
- Colony Color ([11]; klpn 33495, 18 h): gb
- Colony Color ([11]; klpn 33606, 18 h): gb
- Colony Color ([11]; klpn 33606, 21 h): gb
- Colony Color (Summary) (S. milleri (stmi); [17]): 0
- Colony Color on Various Chromogenic TSA II with 5% Sheep Blood (S. milleri (stmi); stmi 6242, CO2, 18 h): 0
- Colony Color (S. milleri (stmi); CO2): 0
- Colony Color (S. milleri (stmi); air): 0
- Colony Color (Summary) [12, 17]: 0
- Colony Color ([12]; cifr 8454, 18 h): 0
- Colony Color ([12]; cifr 8454, 21 h): 0
- Colony Color ([12]; cifr 33128, 18 h): 0
- Colony Color ([12]; cifr 33128, 21 h): 0
- Colony Color (Summary) (Salmonella spp. (sasp); [17]): 0
- Colony Color (Salmonella spp. (sasp); saty 19430, 18 h): 0
- Colony Color (Salmonella spp. (sasp); saty 19430, 21 h): 0
- Colony Color (Salmonella spp. (sasp); satym 14028, 18 h): 0
- Colony Color (Salmonella spp. (sasp); satym 14028, 21 h): 0
- Colony Color ([13]; psae 9027, 18 h): 0
- Colony Color ([13]; psae 9027, 21 h): 0
- Colony Color ([13]; psae 15442, 18 h): 0
- Colony Color ([13]; psae 15442, 21 h): 0
- Colony Color ([13]; psae 33607, 18 h): 0
- Colony Color ([13]; psae 33607, 21 h): lgb
